Reference: patent publication US11020398B2, “Amino-pyrrolopyrimidinone compounds and methods of use thereof” (ArQule, Inc., priority 2016, dated 2021)

Legend:
[1] = target: full-length activated BTK mutant C481S (Homo sapiens (Human), UniProt Q06187, C481S); assay: AlphaScreen assay, BTK mutant C481S; format: biochemical; conditions: for inhibition at 10 µM: read-out: BTK-C481S % @ 10 uM, @ 10 uM
Description: (§1) The activated BTK was frozen in 50 μl aliquots (125-150 μg/ml).
(§2) BTK activity was assayed using a PLCγ2-derived biotinylated peptide substrate (biotin-[…]-OH) and AlphaScreen™ (Amplified Luminescent Proximity Homogeneous Assay) technology. The extent of peptide phosphorylation was determined by using acceptor beads conjugated to phosphotyrosine antibody that recognized the phosphorylated peptide and donor beads conjugated to streptavidin that binds to the biotin on the peptide. Excitation of the donor beads converted ambient oxygen to excited singlet oxygen which when in close proximity to acceptor beads, reacted with acceptor beads resulting in signal amplification.
(§3) Test inhibitors and controls were prepared in 10% DMSO at 10-fold the desired final concentration and added to each well of a reaction plate (Corning 96-well half-area solid white nonbinding surface plate) in a volume of 2.5 μl. […] The plate was incubated for 120 min at room temperature and the reaction stopped by the addition of 10 μl stop/detection mixture containing 35 mM EDTA, 50 ug/ml AlphaScreen™ Streptavidin Donor beads (final concentration is 500 ng/well) and AlphaScreen™ Phospho-tyrosine (P-Tyr-100) Acceptor beads (final concentration is 500 ng/well) under green light conditions. The plate was incubated overnight at room temperature in the dark and the plates read on the BMG PolarStar Omega ([…], Gain=4000). Data were archived and analyzed with a 4-parameter fit to generate IC50 values using the CDD Vault from Collaborative Drug Discovery.

[2] = target: full-length activated BTK (wildtype) (Homo sapiens (Human), UniProt Q06187); assay: AlphaScreen assay, wild-type BTK; format: biochemical; conditions: for inhibition at 10 µM: read-out: BTK % @ 10 uM, @ 10 uM
Sequence of full-length activated BTK (wildtype) (Q06187 whole entry): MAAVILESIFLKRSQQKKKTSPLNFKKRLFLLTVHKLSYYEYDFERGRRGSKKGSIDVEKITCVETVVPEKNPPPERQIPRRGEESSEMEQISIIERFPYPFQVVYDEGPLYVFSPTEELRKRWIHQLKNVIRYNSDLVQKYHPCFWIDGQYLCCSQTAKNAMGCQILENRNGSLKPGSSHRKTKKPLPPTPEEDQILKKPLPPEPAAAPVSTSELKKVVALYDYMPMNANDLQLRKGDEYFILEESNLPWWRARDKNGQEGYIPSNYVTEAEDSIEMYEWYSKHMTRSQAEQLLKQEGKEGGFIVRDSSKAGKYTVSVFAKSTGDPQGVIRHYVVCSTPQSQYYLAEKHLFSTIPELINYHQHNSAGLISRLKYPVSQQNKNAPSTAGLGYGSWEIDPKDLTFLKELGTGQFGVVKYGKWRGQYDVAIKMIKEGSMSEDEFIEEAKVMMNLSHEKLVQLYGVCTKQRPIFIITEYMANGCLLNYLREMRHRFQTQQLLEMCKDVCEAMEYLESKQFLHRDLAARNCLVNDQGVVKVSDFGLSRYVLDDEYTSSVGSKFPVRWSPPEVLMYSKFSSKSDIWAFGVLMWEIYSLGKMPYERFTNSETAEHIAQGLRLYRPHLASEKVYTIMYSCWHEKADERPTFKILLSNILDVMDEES
Description: as §1, §2, §3

Sequence of full-length activated BTK mutant C481S (Q06187 whole entry C481S): as the sequence (Q06187 whole entry) above, with C481S counted along it

SMILES: O=C(c1ccc(C(=O)N2CCN(c3ccccn3)CC2)cc1Cl)c1c[nH]c2ncnc(N[C@@H]3CC[C@@H](CO)OC3)c12 [Compound I-616, (3-chloro-4-(4-(((3R,6S)-6-(hydroxymethyl)tetrahydro-2H-pyran-3-yl)amino)-7H-pyrrolo[2,3-d]pyrimidine-5-carbonyl)phenyl)(4-(pyridin-2-yl)piperazin-1-yl)methanone]
- IC50 [1]: 506 nM
- IC50 [2]: 116 nM

SMILES: O=C(c1ccc(C(=O)N2CCCCC2)cc1Cl)c1c[nH]c2ncnc(N[C@@H]3CC[C@@H](CO)OC3)c12 [Compound I-617, (3-chloro-4-(4-(((3R,6S)-6-(hydroxymethyl)tetrahydro-2H-pyran-3-yl)amino)-7H-pyrrolo[2,3-d]pyrimidine-5-carbonyl)phenyl)(piperidin-1-yl)methanone]
- IC50 [1]: 48.7 nM
- IC50 [2]: 16.2 nM

SMILES: O=C(NCc1ccccc1)c1ccc(C(=O)c2c[nH]c3ncnc(N[C@@H]4CC[C@@H](CO)OC4)c23)c(Cl)c1 [Compound I-618, N-benzyl-3-chloro-4-(4-(((3R,6S)-6-(hydroxymethyl)tetrahydro-2H-pyran-3-yl)amino)-7H-pyrrolo[2,3-d]pyrimidine-5-carbonyl)benzamide]
- IC50 [1]: 399 nM
- IC50 [2]: 87.4 nM

SMILES: Cn1cc(NC(=O)c2ccc(C(=O)c3c[nH]c4ncnc(N[C@@H]5CC[C@@H](CO)OC5)c34)c(Cl)c2)cn1 [Compound I-619, 3-chloro-4-(4-(((3R,6S)-6-(hydroxymethyl)tetrahydro-2H-pyran-3-yl)amino)-7H-pyrrolo[2,3-d]pyrimidine-5-carbonyl)-N-(1-methyl-1H-pyrazol-4-yl)benzamide]
- IC50 [1]: 942 nM
- IC50 [2]: 376 nM

SMILES: CN1CCN(C(=O)c2ccc(C(=O)c3c[nH]c4ncnc(N[C@@H]5CC[C@@H](CO)OC5)c34)c(Cl)c2)CC1 [Compound I-620, (3-chloro-4-(4-(((3R,6S)-6-(hydroxymethyl)tetrahydro-2H-pyran-3-yl)amino)-7H-pyrrolo[2,3-d]pyrimidine-5-carbonyl)phenyl)(4-methylpiperazin-1-yl)methanone]
- inhibition at 10 µM [1]: 70%
- IC50 [2]: 598 nM

SMILES: O=C(NC1CC2(COC2)C1)c1ccc(C(=O)c2c[nH]c3ncnc(N[C@@H]4CC[C@@H](CO)OC4)c23)c(Cl)c1 [Compound I-621, 3-chloro-4-(4-(((3R,6S)-6-(hydroxymethyl)tetrahydro-2H-pyran-3-yl)amino)-7H-pyrrolo[2,3-d]pyrimidine-5-carbonyl)-N-(2-oxaspiro[3.3]heptan-6-yl)benzamide]
- inhibition at 10 µM [1]: 85%
- IC50 [2]: 571 nM

SMILES: CN1CCN(C(=O)c2ccc(Cl)c(C(=O)c3c[nH]c4ncnc(N[C@@H]5CC[C@@H](CO)OC5)c34)c2)CC1 [Compound I-622, (4-chloro-3-(4-(((3R,6S)-6-(hydroxymethyl)tetrahydro-2H-pyran-3-yl)amino)-7H-pyrrolo[2,3-d]pyrimidine-5-carbonyl)phenyl)(4-methylpiperazin-1-yl)methanone]
- inhibition at 10 µM [1]: 62%
- IC50 [2]: 847 nM

SMILES: O=C(c1cc(C(=O)N2CCCCC2)ccc1Cl)c1c[nH]c2ncnc(N[C@@H]3CC[C@@H](CO)OC3)c12 [Compound I-623, (4-chloro-3-(4-(((3R,6S)-6-(hydroxymethyl)tetrahydro-2H-pyran-3-yl)amino)-7H-pyrrolo[2,3-d]pyrimidine-5-carbonyl)phenyl)(piperidin-1-yl)methanone]
- IC50 [1]: 185 nM
- IC50 [2]: 124 nM

SMILES: COCCNC(=O)c1ccc(Cl)c(C(=O)c2c[nH]c3ncnc(N[C@@H]4CC[C@@H](CO)OC4)c23)c1 [Compound I-624, 4-chloro-3-(4-(((3R,6S)-6-(hydroxymethyl)tetrahydro-2H-pyran-3-yl)amino)-7H-pyrrolo[2,3-d]pyrimidine-5-carbonyl)-N-(2-methoxyethyl) benzamide]
- inhibition at 10 µM [1]: 53%
- IC50 [2]: 1210 nM

SMILES: O=C(c1cc(C(=O)N2CCc3ccccc3C2)ccc1Cl)c1c[nH]c2ncnc(N[C@@H]3CC[C@@H](CO)OC3)c12 [Compound I-625, (4-chloro-3-(4-(((3R,6S)-6-(hydroxymethyl)tetrahydro-2H-pyran-3-yl)amino)-7H-pyrrolo[2,3-d]pyrimidine-5-carbonyl)phenyl)(3,4-dihydroisoquinolin-2(1H)-yl)methanone]
- IC50 [1]: 170 nM
- IC50 [2]: 110 nM

SMILES: O=C(NCCN1CCOCC1)c1ccc(Cl)c(C(=O)c2c[nH]c3ncnc(N[C@@H]4CC[C@@H](CO)OC4)c23)c1 [Compound I-626, 4-chloro-3-(4-(((3R,6S)-6-(hydroxymethyl)tetrahydro-2H-pyran-3-yl)amino)-7H-pyrrolo[2,3-d]pyrimidine-5-carbonyl)-N-(2-morpholinoethyl) benzamide]
- IC50 [1]: 757 nM
- IC50 [2]: 164 nM

SMILES: O=C(c1cc(C(=O)N2CCN(c3ccccn3)CC2)ccc1Cl)c1c[nH]c2ncnc(N[C@@H]3CC[C@@H](CO)OC3)c12 [Compound I-627, (4-chloro-3-(4-(((3R,6S)-6-(hydroxymethyl)tetrahydro-2H-pyran-3-yl)amino)-7H-pyrrolo[2,3-d]pyrimidine-5-carbonyl)phenyl)(4-(pyridin-2-yl)piperazin-1-yl)methanone]
- IC50 [1]: 664 nM
- IC50 [2]: 777 nM

SMILES: O=C(NCc1ccccc1)c1ccc(Cl)c(C(=O)c2c[nH]c3ncnc(N[C@@H]4CC[C@@H](CO)OC4)c23)c1 [Compound I-628, N-benzyl-4-chloro-3-(4-(((3R,6S)-6-(hydroxymethyl)tetrahydro-2H-pyran-3-yl)amino)-7H-pyrrolo[2,3-d]pyrimidine-5-carbonyl)benzamide]
- IC50 [1]: 161 nM
- IC50 [2]: 59.7 nM

SMILES: Cn1cc(NC(=O)c2ccc(Cl)c(C(=O)c3c[nH]c4ncnc(N[C@@H]5CC[C@@H](CO)OC5)c34)c2)cn1 [Compound I-629, 4-chloro-3-(4-(((3R,6S)-6-(hydroxymethyl)tetrahydro-2H-pyran-3-yl)amino)-7H-pyrrolo[2,3-d]pyrimidine-5-carbonyl)-N-(1-methyl-1H-pyrazol-4-yl)benzamide]
- IC50 [1]: 804 nM
- IC50 [2]: 89.5 nM

SMILES: N#Cc1cccc(NC(=O)c2ccc(Cl)c(C(=O)c3c[nH]c4ncnc(N[C@@H]5CC[C@@H](CO)OC5)c34)c2)c1 [Compound I-630, 4-chloro-N-(3-cyanophenyl)-3-(4-(((3R,6S)-6-(hydroxymethyl)tetrahydro-2H-pyran-3-yl)amino)-7H-pyrrolo[2,3-d]pyrimidine-5-carbonyl)benzamide]
- IC50 [1]: 189 nM
- IC50 [2]: 18.4 nM

SMILES: O=C(Nc1ccccc1)c1ccc(Cl)c(C(=O)c2c[nH]c3ncnc(N[C@@H]4CC[C@@H](CO)OC4)c23)c1 [Compound I-631, 4-chloro-3-(4-(((3R,6S)-6-(hydroxymethyl)tetrahydro-2H-pyran-3-yl)amino)-7H-pyrrolo[2,3-d]pyrimidine-5-carbonyl)-N-phenylbenzamide]
- IC50 [1]: 177 nM
- IC50 [2]: 52.1 nM

SMILES: O=C(c1ccc(C(=O)N2CCOCC2)cc1)c1c[nH]c2ncnc(N[C@@H]3CC[C@@H](CO)OC3)c12 [Compound I-632, (4-(((3R,6S)-6-(hydroxymethyl)tetrahydro-2H-pyran-3-yl)amino)-7H-pyrrolo[2,3-d]pyrimidin-5-yl)(4-(morpholine-4-carbonyl)phenyl) methanone]
- inhibition at 10 µM [1]: 66%
- inhibition at 10 µM [2]: 84%

SMILES: Cn1cc(NC(=O)c2ccc(C(=O)c3c[nH]c4ncnc(N[C@@H]5CC[C@@H](CO)OC5)c34)cc2)cn1 [Compound I-633, 4-(4-(((3R,6S)-6-(hydroxymethyl)tetrahydro-2H-pyran-3-yl)amino)-7H-pyrrolo[2,3-d]pyrimidine-5-carbonyl)-N-(1-methyl-1H-pyrazol-4-yl)benzamide]
- inhibition at 10 µM [1]: 50%
- inhibition at 10 µM [2]: 77%

SMILES: O=C(Nc1ccccc1)c1cccc(C(=O)c2c[nH]c3ncnc(N[C@@H]4CC[C@@H](CO)OC4)c23)c1 [Compound I-634, 3-(4-(((3R,6S)-6-(hydroxymethyl)tetrahydro-2H-pyran-3-yl)amino)-7H-pyrrolo[2,3-d]pyrimidine-5-carbonyl)-N-phenylbenzamide]
- IC50 [1]: 690 nM
- IC50 [2]: 620 nM

SMILES: O=C(c1cccc(C(=O)N2CCOCC2)c1)c1c[nH]c2ncnc(N[C@@H]3CC[C@@H](CO)OC3)c12 [Compound I-635, (4-(((3R,6S)-6-(hydroxymethyl)tetrahydro-2H-pyran-3-yl)amino)-7H-pyrrolo[2,3-d]pyrimidin-5-yl)(3-(morpholine-4-carbonyl)phenyl) methanone]
- inhibition at 10 µM [1]: 49%
- inhibition at 10 µM [2]: 73%

SMILES: COCCNC(=O)c1ccc(C(=O)c2c[nH]c3ncnc(N[C@@H]4CC[C@@H](CO)OC4)c23)cc1 [Compound I-636, 4-(4-(((3R,6S)-6-(hydroxymethyl)tetrahydro-2H-pyran-3-yl)amino)-7H-pyrrolo[2,3-d]pyrimidine-5-carbonyl)-N-(2-methoxyethyl)benzamide]
- inhibition at 10 µM [1]: 41%
- inhibition at 10 µM [2]: 62%

SMILES: COCCNC(=O)c1cccc(C(=O)c2c[nH]c3ncnc(N[C@@H]4CC[C@@H](CO)OC4)c23)c1 [Compound I-637, 3-(4-(((3R,6S)-6-(hydroxymethyl)tetrahydro-2H-pyran-3-yl)amino)-7H-pyrrolo[2,3-d]pyrimidine-5-carbonyl)-N-(2-methoxyethyl)benzamide]
- inhibition at 10 µM [1]: 55%
- inhibition at 10 µM [2]: 76%
